Molecules are shown by their SMILES. Active and inactive are the calls of the source. How the calls were made is not given here.

The target of one test is T1, Kinase (Mus musculus, UniProt B2RXC2).
T1 sequence (B2RXC2 whole entry): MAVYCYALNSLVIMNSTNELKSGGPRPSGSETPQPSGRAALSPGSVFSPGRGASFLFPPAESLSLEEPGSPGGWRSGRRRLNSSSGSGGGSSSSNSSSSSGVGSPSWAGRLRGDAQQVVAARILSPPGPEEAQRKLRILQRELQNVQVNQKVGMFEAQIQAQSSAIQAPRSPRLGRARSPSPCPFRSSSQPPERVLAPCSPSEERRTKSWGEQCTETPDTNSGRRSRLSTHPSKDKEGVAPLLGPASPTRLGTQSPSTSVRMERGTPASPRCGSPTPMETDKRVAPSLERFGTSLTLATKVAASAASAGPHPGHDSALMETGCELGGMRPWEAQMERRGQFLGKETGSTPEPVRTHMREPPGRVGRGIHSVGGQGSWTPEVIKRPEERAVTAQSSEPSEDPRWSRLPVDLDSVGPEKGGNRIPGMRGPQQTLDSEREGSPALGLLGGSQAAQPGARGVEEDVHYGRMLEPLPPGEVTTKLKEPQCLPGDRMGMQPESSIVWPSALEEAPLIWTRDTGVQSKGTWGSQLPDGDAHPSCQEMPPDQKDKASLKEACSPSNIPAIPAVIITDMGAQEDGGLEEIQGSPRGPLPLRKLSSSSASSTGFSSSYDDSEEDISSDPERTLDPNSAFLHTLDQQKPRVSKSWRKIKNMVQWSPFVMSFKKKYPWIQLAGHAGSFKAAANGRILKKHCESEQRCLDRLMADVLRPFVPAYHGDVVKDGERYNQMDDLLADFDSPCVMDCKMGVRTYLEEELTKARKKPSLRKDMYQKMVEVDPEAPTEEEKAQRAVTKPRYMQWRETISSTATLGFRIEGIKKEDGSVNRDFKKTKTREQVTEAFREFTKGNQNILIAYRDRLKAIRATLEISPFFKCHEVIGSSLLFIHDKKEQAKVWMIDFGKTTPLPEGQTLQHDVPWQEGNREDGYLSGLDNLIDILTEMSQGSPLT
The test is described as follows: Inhibition of mouse ITPKb (640 to 942 residues) expressed in Escherichia coli HK100 assessed as reduction in phosphorylation of IP3 to IP4 incubated for 60 mins by kinase-Glo ATP depletion assay. Background: In Kinase-Glo more light means more ATP remaining.

For test [1], the target named is T2, Inositol-trisphosphate 3-kinase B (Homo sapiens) (UniProt P27987).
T2 sequence (whole entry): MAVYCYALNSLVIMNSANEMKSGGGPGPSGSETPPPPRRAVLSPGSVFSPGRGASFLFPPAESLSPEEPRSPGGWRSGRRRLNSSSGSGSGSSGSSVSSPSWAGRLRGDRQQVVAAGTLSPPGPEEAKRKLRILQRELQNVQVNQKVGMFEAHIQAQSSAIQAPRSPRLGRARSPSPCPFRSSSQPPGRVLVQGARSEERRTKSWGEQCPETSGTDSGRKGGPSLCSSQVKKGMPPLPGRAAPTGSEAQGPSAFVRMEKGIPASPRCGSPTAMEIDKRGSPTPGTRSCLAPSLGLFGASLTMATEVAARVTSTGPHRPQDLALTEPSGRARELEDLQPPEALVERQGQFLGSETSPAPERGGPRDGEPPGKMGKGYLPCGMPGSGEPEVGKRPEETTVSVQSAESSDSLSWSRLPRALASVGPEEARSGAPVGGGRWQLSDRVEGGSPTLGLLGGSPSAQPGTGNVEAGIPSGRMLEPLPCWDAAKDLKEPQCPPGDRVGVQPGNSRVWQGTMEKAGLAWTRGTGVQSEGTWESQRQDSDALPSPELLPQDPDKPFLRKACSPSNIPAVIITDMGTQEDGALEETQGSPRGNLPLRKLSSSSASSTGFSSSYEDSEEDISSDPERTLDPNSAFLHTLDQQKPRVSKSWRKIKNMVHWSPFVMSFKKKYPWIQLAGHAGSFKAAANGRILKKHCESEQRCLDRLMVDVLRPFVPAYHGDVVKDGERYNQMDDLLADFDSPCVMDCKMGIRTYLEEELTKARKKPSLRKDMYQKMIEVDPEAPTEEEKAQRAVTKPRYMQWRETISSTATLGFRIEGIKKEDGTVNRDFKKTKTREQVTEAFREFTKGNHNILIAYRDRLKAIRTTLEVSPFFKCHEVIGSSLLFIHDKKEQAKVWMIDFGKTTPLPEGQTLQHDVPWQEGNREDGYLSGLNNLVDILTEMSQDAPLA
Put plainly: Inhibition of ITPKb in human Jurkat cells assessed as reduction in conversion of IP3 to IP4 using [3H]-myo-inositol incubated for 5 mins by beta-RAM radio-HPLC method. Type of test: cell-based.

Consider `Cc1cnc(-c2n[nH]cc2CN2CCN(c3ccc(C(F)(F)F)cn3)[C@H](C)C2)[nH]1`, for which the IC50 at Kinase came out at 10 µM. The inhibition result in test [1] was “Active”.

A word on the IC50: it is the midpoint of a concentration-inhibition curve.

The values are drawn from ChEMBL document CHEMBL3714741, “Compounds and compositions as ITPKB inhibitors” (2011).
